Measurements taken from patent US11091512B2, “Modulation of antigen immunogenicity by deleting epitopes recognized by NKT cells” (Imnate Sarl, priority 2010, dated 2021).
Substitutions are numbered along the chain they refer to. Names may count otherwise. “Also recorded” adds a separate entry of the source.

Columns and labels:
NKT cells [1] = assay: human CD1d tetramers loaded with IgG peptides, peripheral blood CD4+ T cells of patients given a therapeutic antibody (facs); assay type: cell-based; settings: patients injected with a therapeutic antibody during the previous 5 days
Method: Synthetic peptides corresponding to SEQ ID18, SEQ ID19 and SEQ ID20 were produced and used to load human CD1d tetramers as for the examples above (see for instance example 4 for allergen Der p 1). Peripheral blood cells were obtained by venous puncture of patients who had received an injection of a therapeutic antibody during the previous 5 days. CD4+ T cells were purified by magnetic bead sorting. The cells were then incubated with tetramers loaded with peptides of SEQ ID18, SEQ ID19 or SEQ ID20. Analysis by facs identifies a significant proportion of NKT cells (±10%) labeled by tetramers.

NKT cells [2] = assay: activation of NKT cells in vitro by human dendritic cells loaded with peptide or polypeptide; assay type: cell-based
Method: (§1) Synthetic peptides corresponding to SEQ ID9 and SEQ ID10 were produced. Their capacity to activate NKT cells was determined in vitro using human dendritic cells derived from peripheral blood monocytes of an individual sensitized to Mal d 1. Dendritic cells loaded with each one of the two peptides were incubated in the presence of NKT cells obtained from the same individual by sorting peripheral lymphocytes using specific markers such as CD4 and NKG2D.
(§2) As for Mal d 1, human CD1d tetramers loaded with a synthetic peptide representing the motif identified in the polypeptide of […]

NKT cells [3] = assay: human CD1d tetramers loaded with peptides, recognition by NKT cells; assay type: cell-based; settings: Mal d 1 peptides
Method: as §1, §2

CD4+ NKT cells = assay: intranasal Der p 1 in BALB/c mice, spleen CD4+ T cells stained with peptide-loaded CD1d tetramers (facs); assay type: in vivo; settings: for percentage of CD4+ T cells stained with CD1d tetramers loaded with peptide: mice given natural sequence Der p 1 intranasally, 100 μg
Method: Peptides of SEQ ID13, SEQ ID14 and SEQ ID15 were synthesized and used to load CD1d tetramers.
BALB/c mice were submitted to intranasal administration of Der p 1, using 50 μl of saline containing 100 μg of Der p 1. This challenge procedure was repeated twice on three consecutive days at one-week interval. The mice were sacrificed 5 days after the last nasal instillation and the spleen was removed. CD4+ T cells were purified by magnetic bead sorting and incubated in the presence of the CD1d tetramers loaded with peptides of SEQ ID13, SEQ ID14 or SEQ ID15. By fluorescence-activated cell sorter (facs) determination, it was observed that a significant percentage of cells (±10%) were stained with the tetramers, identifying them as CD4+ NKT cells. It was therefore concluded that peptides of SEQ ID13, SEQ ID14 and SEQ ID15 were functional in binding to CD1d and in being recognized by NKT cells.
Next, a mutated form of Der p 1 was prepared by genetic engineering, in which the 3 aminoacid residues predicted to be in position P1 for CD binding of peptides of SEQ ID13, SEQ ID14 and SEQ ID15 were substituted by serine. The mutated Der p 1 (SEQ ID16) was used for nasal instillation as described above with Der p 1 in natural sequence (SEQ ID17).

NKT cells [4] = assay: CD1d tetramers loaded with FVIII peptides incubated with spleen CD4+ T cells of FVIII-immunized hemophilia A mice, Facs; assay type: cell-based; settings: for binding of CD1d tetramers loaded with peptide: spleen CD4+ T cells of hemophilia A mice injected IV with FVIII 2 IU on 4 occasions, 15 aminoacid long peptides
Method: To determine whether these sequences could activate NKT cells in vivo, FVIII (2 IU) was injected intravenously to hemophilia A mice on 4 occasions separated by a 1-week interval. Hemophilia A mice produce no FVIII due to a stop codon introduced in the FVIII gene in exon 16.
Mice were sacrificed 10 days after the last injection, the spleen was removed and CD4+ T cells were prepared by magnetic bead sorting. NKT cells are characterized by expression of CD4 and recognition of antigen presented by CD1d molecule. A tetramer of CD1d was obtained from a commercial supplier and loaded with 15 aminoacid long FVIII peptides, which included peptides containing SEQ ID1, SEQ ID2 and SEQ ID3.
Hemophilia A mice were immunized with 2 IU Factor VIII on 4 occasions separated by one week. The spleen was then removed and CD4+ T cells were prepared by magnetic bead sorting. A fluorochrome-labeled tetramer of CD1d was obtained from a commercial supplier and loaded with 15 aminoacid long FVIII peptides, which included peptides containing SEQ ID1, ID2 and ID3. Loading was carried out at room temperature overnight in the dark.
Tetramers were then incubated for 30 minutes at 4° C. with the CD4+ T cell population and the cell suspension was analyzed by Facs.

hemophilia A mice = assay: direct immunization of hemophilia A mice with peptides containing a CD1d motif; assay type: in vivo; settings: direct immunization with peptide
Method: Hemophilia A mice were immunized 3 times subcutaneously with 50 μg of an equimolar mixture of peptides of SEQ ID1 (44pept) and peptide of SEQ ID2 (256pept) adsorbed on aluminum hydroxyde. A control group received physiological serum instead of peptides. Plasma was taken 10 days after the last immunization and assessed for the presence of anti-Factor VIII antibodies, using a direct binding assay. Briefly, Factor VIII (10 IU/ml) was insolubilized on polystyrene plates, which were washed and incubated with a 1/10 dilution of plasma. After a further washing, a HRP-labeled goat anti-mouse antiserum was added, followed by an enzyme substrate. Colour development was read as OD.

NKT cells [5] = assay: JAWS2 cells loaded with Der p 1, production of IFN-gamma and IL-4 as markers of NKT activation; assay type: cell-based; settings: JAWS2 cells loaded with the protein; cells from mice immunized with natural sequence Der p 1
Method: CD4+ T cells obtained from the above experiments were incubated in culture medium in the presence of an antigen-presenting cell which expresses the CD1d molecule. […] JAWS2 cells were loaded with Der p 1 and presentation of Der p 1-derived epitopes by CD1d was evaluated by measuring the production of cytokines such as IFN-gamma and IL-4 as markers of NKT activation.
Further, mutated Der p 1 (SEQ ID16) was used to load JAWS2 cells and tested for its capacity to activate NKT cells. For this experiment, NKT cells were used as obtained from mice immunized with Der p 1 in either natural or mutated configuration. The production of IFN-gamma and IL-4 was taken as an indication of NKT activation.

[6] = dendritic cells and NKT cells of an individual sensitized to Mal d 1
[7] = alpha-gliadin polypeptide presented by antigen-presenting dendritic cells, same procedure as for Mal d 1

Molecule: HEALHNH (listed as Homo sapiens) [SEQ ID20, CH3 loop of IgG1, IgG2 and IgG4]
- proportion of NKT cells labeled by tetramers (NKT cells [1]): ~10%

Molecule: SKLIESS (listed as Malus domestica) [SEQ ID10, synthetic peptide of Mal d 1 motif with F144S and Y150S mutations]
- activation of NKT cells (NKT cells [2]; [6]): did not
- proportion of NKT cells recognizing peptide-loaded human CD1d tetramers (NKT cells [3]): less than 1%

Molecule: FRVVSVL (listed as Homo sapiens) [SEQ ID19, CH2 of IgG2 and IgG3]
- proportion of NKT cells labeled by tetramers (NKT cells [1]): ~10%

Molecule: YPYVVIL (listed as Dermatophagoides pteronyssinus) [SEQ ID15, aminoacids 216-222 of Der p 1]
- percentage of CD4+ T cells stained with CD1d tetramers loaded with peptide (CD4+ NKT cells): ~10%

Molecule: FKLIESY (listed as Malus domestica) [SEQ ID9, synthetic peptide, aminoacids 144-150 of Mal d 1]
- activation of NKT cells (NKT cells [2]; [6]): activated a significant proportion of NKT cells
- recognition of peptide-loaded human CD1d tetramers by NKT cells (NKT cells [3]): recognized by a significant proportion of NKT cells

Molecule: FWKVQHH (listed as Homo sapiens) [SEQ ID2, FVIII A3 domain aminoacids 1816-1822 CD1d motif; tested as 15 aminoacid long FVIII peptide containing it]
- binding of CD1d tetramers loaded with peptide (NKT cells [4]): Significant binding
- activation of NKT cells (hemophilia A mice): sufficient as to elicit the activation of NKT cells

Molecule: FSGVAAT (listed as Dermatophagoides pteronyssinus) [SEQ ID13, aminoacids 38-44 of Der p 1]
- percentage of CD4+ T cells stained with CD1d tetramers loaded with peptide (CD4+ NKT cells): ~10%

Molecule: YRVVSVL (listed as Homo sapiens) [SEQ ID18, CH2 of IgG1 and IgG4]
- proportion of NKT cells labeled by tetramers (NKT cells [1]): ~10%

Molecule: HSAIAAVI (listed as Dermatophagoides pteronyssinus) [SEQ ID14, aminoacids 135-141 of Der p 1]
- percentage of CD4+ T cells stained with CD1d tetramers loaded with peptide (CD4+ NKT cells): ~10%

Molecule: FCHISSH (listed as Homo sapiens) [SEQ ID1, FVIII A1 domain aminoacids 309-315 CD1d motif; tested as 15 aminoacid long FVIII peptide containing it]
- % of NKT cells recognizing peptide-loaded CD1d tetramers (NKT cells [4]; FIG. 1, CD4+ T cells of hemophilia A mice immunized with Factor VIII): Up to 45%
- binding of CD1d tetramers loaded with peptide (NKT cells [4]): Significant binding
- activation of NKT cells (hemophilia A mice): sufficient as to elicit the activation of NKT cells; also recorded: Prominent activation

Molecule: FHAINGY [SEQ ID3, FVIII A3 domain aminoacids 1918-1924 CD1d motif; tested as 15 aminoacid long FVIII peptide containing it]
- binding of CD1d tetramers loaded with peptide (NKT cells [4]): Significant binding
- activation of NKT cells (hemophilia A mice): sufficient as to elicit the activation of NKT cells

B1: SEQ ID11: alpha-gliadin polypeptide, natural sequence with CD1d binding motif (protein, listed as Homo sapiens)
chain: MVRVPVPQLQPQNPSQQQPQEQVPLVQQQQFPGQQQPFPPQQPYPQPQPFPSQQPYLQLQPFPQPQLPYPQPQLPYPQPQLPYPQPQPFRPQQPYPQSQPQYSQPQQPISQQQQQQQQQQQQKQQQQQQQQILQQILQQQLIPCRDVVLQQHSIAYGSSQVLQQSTYQLVQQLCCQQLWQIPEQSRCQAIHNVVHAIILHQQQQQQQQQQQQPLSQVSFQQPQQQYPSGQGSFQPSQQNPQAQGSVQPQQLPQFEEIRNLALETLPAMCNVYIPPYCTIAPVGIFGTNYR
- activation of NKT cells (NKT cells [2]; [7]): activated a significant proportion of NKT cells

B2: SEQ ID12: mutated form of alpha-gliadin in which the F residue of the motif was substituted by S (protein, listed as Homo sapiens)
chain: B1 chain with Y56S, Y167S, H191S, F254S, Y276S
- activation of NKT cells (NKT cells [2]; [7]): failed to do so

B3: Der p 1: cysteine protease, main allergen of house dust mite D. pteronyssinus, natural sequence (protein, listed as Dermatophagoides pteronyssinus)
chain: ETNACSINGNAPAEIDLRQMRTVTPIRMQGGCGSCWAFSGVAATESAYLAYRNQSLDLAEQELVDCASQHGCHGDTIPRGIEYIQHNGVVQESYYRYVAREQSCRRPNAQRFGISNYCQIYPPNVNKIREALAQTHSAIAVIIGIKDLDAFRHYDGRTIIQRDNGYQPNYHAVNIVGYSNAQGVDYWIVRNSWDTNWGDNGYGYFAANIDLMMIEEYPYVVIL
- NKT activation (production of IFN-gamma and IL-4) (NKT cells [5]): significant production of cytokines

B4: SEQ ID16: mature Der p 1 with P1 anchoring residues F38S, H135S and Y216S mutated (protein, listed as Dermatophagoides pteronyssinus)
chain: B3 chain with F38S, H136S, Y217S
- binding of CD4+ T cell splenocytes to tetramers loaded with peptide of SEQ ID13, SEQ ID14 or SEQ ID15 (CD4+ NKT cells; mice given the protein by nasal instillation): no significant binding
- NKT activation (production of IFN-gamma and IL-4) (NKT cells [5]): failed to be activated
